Measurements from patent US20110263487A1, “Plant Production and Delivery System for Recombinant Proteins as Protein-Flour or Protein-Oil Compositions” (University of Georgia Research Foundation, Inc., priority 2007, published 2011).

System: Fall Army Worm, Spodoptera frupperda
Test: Larvae feeding on transgenic Arabidopsis plants, mortality
Type: in vivo
Settings: relative to control plants
Experimental: The mortality of moth larvae species was assayed examining the feeding of the three genotypes of transgenic plants relative to each other and relative to wild-type plant controls. An initial result indicates extremely high expression levels of the B.t. and B.t.B expressed from the ACTIN 2 A2pt cassette can be achieved. […] Cry1Ac (plant line Cry1#31, Table 2). The mortality of Fall Army Worm, Spodoptera frupperda, which is 100-fold less sensitive to Cry1Ac, was assayed feeding on these plants.

B.t. Cry1Ac: Bacillus thuringiensis toxin Cry1Ac expressed in transgenic Arabidopsis from A2pt::Cry1Ac (SEQ ID NO: 1)
killing of the Fall Army Worm feeding on transgenic plants: weak killing activity
